Measured values: patent US20230148602A1, “BENZAMIDE COMPOUND AND HERBICIDE” (Nippon Soda Co., Ltd., priority 2020, published 2023)

Columns and labels:
Alopecurus myosuroides [1] = assay: Test Example 1 foliage treatment, weed killing rate; type: in vivo; settings: foliar, 504 h, 250 g/ha active ingredient, foliage spray, after 3 weeks
Method: (§1) POA allylphenyl ether (4.1 parts by weight), POE-POP glycol (1 part by weight), POE sorbitan laurate (0.8 parts by weight), glycerin (2.6 parts by weight), dimethylformamide (65.9 parts by weight), N-methylpyrrolidone (5.1 parts by weight), cyclohexanone (15.4 parts by weight), and aromatic hydrocarbons (5.1 parts by weight) were mixed to obtain an emulsion.
(§2) The compound of the present invention (4 mg) was dissolved in this emulsion (100 μt) to obtain a test emulsion. POA means “polyoxyalkylene”, POE means “polyoxyethylene”, and POP means “polyoxypropylene”.
(§3) In a 150 cm^2 pot filled with soil, seeds of Digitaria ciliaris, Amaranthus retroflexus, Alopecurus myosuroides and Matricaria chamomilla were respectively sown and covered lightly with soil. Thereafter, they were grown in a greenhouse. When each plant grew to a plant height of 2 to 5 cm, the above test emulsion was diluted with water and sprayed on the foliage with a small sprayer at a spray water volume of 250 L per hectare (the amount of active ingredient of 250 g per hectare).
(§4) After 3 weeks, the above ground weights of weeds in the untreated and treated areas were measured for each plant, and the weed killing rate was calculated by the following calculation formula.
(§5) Weed killing rate (%)=[{(above ground weight of weeds in untreated area)−(above ground weight of weeds in treated area)}/(above ground weight of weeds in untreated area)]×100

Amaranthus retroflexus = assay: as above; type: in vivo; settings: foliar, 504 h, 250 g/ha active ingredient, foliage spray, after 3 weeks
Method: as §1, §2, §3, §4, §5

Digitaria ciliaris = assay: as above; type: in vivo; settings: foliar, 504 h, 250 g/ha active ingredient, foliage spray, after 3 weeks
Method: as §1, §2, §3, §4, §5

Matricaria chamomilla = assay: as above; type: in vivo; settings: foliar, 504 h, 250 g/ha active ingredient, foliage spray, after 3 weeks
Method: as §1, §2, §3, §4, §5

Alopecurus myosuroides [2] = assay: Test Example 2 foliage treatment, weed killing rate; type: in vivo; settings: foliage spray, after 4 weeks
Method: (§6) In a 150 cm^2 pot filled with soil, seeds of Alopecurus myosuroides, Setaria faberi and Zea mays were sown and covered lightly with soil. Thereafter, they were grown in a greenhouse. When Alopecurus myosuroides and Setaria faberi grew to a plant height of 2 to 5 cm and Zea mays grew to 30 to 35 cm, the test emulsion obtained in Test Example 1 was diluted with water and sprayed on the foliage with a small sprayer at a spray water volume of 250 L per hectare (the amount of active ingredient of 250 g, 63 g, or 16 g per hectare). Also for the compound represented by the formula (B) (Compound No. B-1), a test emulsion was obtained in the same manner as in Test Example 1, and Test Example 2 was carried out using the emulsion. After 4 weeks, the above ground weights of weeds in the untreated and treated areas were measured for each plant, and the weed killing rate was calculated by the following calculation formula. Weed killing rate (%)=[{(above ground weight of weeds in untreated area)−(above ground weight of weeds in treated area)}/(above ground weight of weeds in untreated area)]×100

Setaria faberi = assay: as above; type: in vivo; settings: foliage spray, after 4 weeks
Method: as §6

Zea mays = assay: Test Example 2 foliage treatment, weed killing rate on maize (phytotoxicity); type: in vivo; settings: foliage spray, after 4 weeks, crop (phytotoxicity to maize)
Method: as §6

melting point	SMILES	pest or weed control at 250 g/ha (Alopecurus myosuroides [1])	pest or weed control at 250 g/ha (Amaranthus retroflexus)	pest or weed control at 250 g/ha (Digitaria ciliaris)	pest or weed control at 250 g/ha (Matricaria chamomilla)	further results
–	Cc1c(NC(=O)C(=O)N(C)C)c(Br)cc(F)c1C(=O)Nc1nnnn1C [A-1, N^1-(6-bromo-4-fluoro-2-methyl-3-((1-methyl-1H-tetrazol-5-yl)carbamoyl)phenyl)-N^2,N^2-dimethyloxalamide]	100%	100%	100%	100%	–
191 to 194 °C	CCN(C)C(=O)C(=O)Nc1c(Br)cc(F)c(C(=O)Nc2nnnn2C)c1C [A-2]	100%	100%	100%	100%	–
–	Cc1c(NC(=O)C(=O)N(C)CC(F)(F)F)c(Br)cc(F)c1C(=O)Nc1nnnn1C [A-3]	100%	100%	100%	100%	Weed killing rate Alopecurus myosuroides (Alopecurus myosuroides [2]; 16 g/ha active ingredient): 80%; Weed killing rate Alopecurus myosuroides (Alopecurus myosuroides [2]; 63 g/ha active ingredient): 100%; Weed killing rate Alopecurus myosuroides (Alopecurus myosuroides [2]; 250 g/ha active ingredient): 100%; Weed killing rate Setaria faberi (Setaria faberi; 16 g/ha active ingredient): 50%; Weed killing rate Setaria faberi (Setaria faberi; 63 g/ha active ingredient): 100%; Weed killing rate Setaria faberi (Setaria faberi; 250 g/ha active ingredient): 100%; Weed killing rate Zea mays (Zea mays; 16 g/ha active ingredient): 0%; Weed killing rate Zea mays (Zea mays; 63 g/ha active ingredient): 0%; Weed killing rate Zea mays (Zea mays; 250 g/ha active ingredient): 30%
179 to 181 °C	COCCN(C)C(=O)C(=O)Nc1c(Br)cc(F)c(C(=O)Nc2nnnn2C)c1C [A-5]	70%	80%	80%	–	–
188 to 192 °C	Cc1c(NC(=O)C(=O)N(C)C2CC2)c(Br)cc(F)c1C(=O)Nc1nnnn1C [A-6]	90%	100%	80%	100%	–
244 to 246 °C	Cc1c(NC(=O)C(=O)N2CCOCC2)c(Br)cc(F)c1C(=O)Nc1nnnn1C [A-7]	–	70%	–	–	–
233 to 235 °C	CCN(C)C(=O)C(=O)Nc1c(Br)cc(F)c(C(=O)Nc2nnnn2C)c1Cl [A-8]	100%	100%	70%	100%	–
220 to 223 °C	CCN(CC)C(=O)C(=O)Nc1c(Br)cc(F)c(C(=O)Nc2nnnn2C)c1Cl [A-9]	100%	80%	70%	100%	–
243 to 246 °C	CN(CC(F)(F)F)C(=O)C(=O)Nc1c(Br)cc(F)c(C(=O)Nc2nnnn2C)c1Cl [A-10]	70%	100%	–	100%	–
204 to 206 °C	Cc1c(C(=O)Nc2nnnn2C)ccc(Br)c1NC(=O)C(=O)N(C)CC(F)(F)F [A-11]	100%	100%	100%	100%	–
104 to 107 °C	Cc1c(NC(=O)C(=O)N(C)CC(F)(F)F)cccc1C(=O)Nc1nnnn1C [A-12]	–	–	–	–	–
198 to 201 °C	CCN(CC)C(=O)C(=O)Nc1c(Br)cc(F)c(C(=O)Nc2nnnn2C)c1C [A-13]	100%	100%	90%	100%	–
275 to 278 °C	Cc1c(NC(=O)C(=O)N2CCCC2)c(Br)cc(F)c1C(=O)Nc1nnnn1C [A-14]	–	80%	–	–	–
154 to 157 °C	CCOC(=O)C(=O)Nc1c(Br)cc(F)c(C(=O)Nc2nnnn2C)c1C [A-15]	–	–	–	–	–
221 to 223 °C	CC(=O)C(=O)Nc1c(Br)cc(F)c(C(=O)Nc2nnnn2C)c1C [A-16]	–	70%	–	90%	–
212 to 215 °C	CON(C)C(=O)C(=O)Nc1c(Br)cc(F)c(C(=O)Nc2nnnn2C)c1C [A-17]	–	–	–	–	–
190 to 193 °C	Cc1c(C(=O)Nc2nnnn2C)ccc(C(F)(F)F)c1NC(=O)C(=O)N(C)CC(F)(F)F [A-18]	–	–	–	–	–
–	Cc1c(NC(=O)N(C)CC(F)(F)F)c(Br)cc(F)c1C(=O)Nc1nnnn1C [B-1, reference compound]	–	–	–	–	Weed killing rate Alopecurus myosuroides (Alopecurus myosuroides [2]; 16 g/ha active ingredient): 40%; Weed killing rate Alopecurus myosuroides (Alopecurus myosuroides [2]; 63 g/ha active ingredient): 50%; Weed killing rate Alopecurus myosuroides (Alopecurus myosuroides [2]; 250 g/ha active ingredient): 90%; Weed killing rate Setaria faberi (Setaria faberi; 16 g/ha active ingredient): 20%; Weed killing rate Setaria faberi (Setaria faberi; 63 g/ha active ingredient): 50%; Weed killing rate Setaria faberi (Setaria faberi; 250 g/ha active ingredient): 100%; Weed killing rate Zea mays (Zea mays; 16 g/ha active ingredient): 20%; Weed killing rate Zea mays (Zea mays; 63 g/ha active ingredient): 30%; Weed killing rate Zea mays (Zea mays; 250 g/ha active ingredient): 90%
